Measurements reported in patent publication US20060104978A1, “Methods and compositions for PDGF-C activation and inhibition” (LUDWIG INSTITUTE FOR CANCER RESEARCH, priority 2003, published 2006).

Experiments:
[1] = tested on: wild-type and tPA-deficient fibroblasts; experiment: BrdU incorporation in primary fibroblasts; format: cell-based, mouse; conditions: 50 ng/ml, 24 hours BrdU labeling
Procedure: Cell nuclei were visualized with 4′,6-diamidine-2′-phenylindole dihydrochloride (DAPI), and BrdU-labeled cells were determined by immunofluorescence using antibodies to BrdU (FIG. 7B).
To monitor cell growth, both the cell proliferation reagent WST-1 (Roche) and BrdU (Sigma) were used. A total of 0.4×10^4 (WST-1) or 1×10^4 (BrdU) wild-type and tPA-deficient fibroblasts were seeded in triplicate-hexaplicate, and after attachment they were serum-starved overnight. Serum-starved cells were counted (WST-1 seeding control) and alternatively incubated for 24 hours in serum-free medium supplemented with 1 mg/ml BSA, and 50 μM BrdU in the BrdU experiment, in the absence or presence of 50 ng/ml activated PDGF-CC or tPA protein (#116, American Diagnostica Inc.). Upon counting, WST-1 reagent was added and measured according to the manufacturer's protocol using an ELISA reader. In the BrdU experiment, the cells were fixed in 4% paraformaldehyde in PBS for 30 min at room temperature and the DNA was denatured in 2M HCl for 20 min at room temperature and then blocked in 0.5% BSA, 0.5% Tween, and 10% goat serum in PBS. […] Quantification of the BrdU-positive cells was performed by counting all cells along the vertical and horizontal diameters of all wells.

latent PDGF-DD = latent PDGF-DD (Homo sapiens, UniProt Q9GZP0); experiment: Cotransfection assay in COS-1 cells: protease plus full-length PDGF-D; format: cell-based; set-up: cotransfected with full-length PDGF-C (Li et al, 2000), full-length PDGF-D (Bergsten et al, 2001); expressed in transfected cells; host or cells: COS-1 cells; conditions: COS-1 conditioned medium, immunoblot
From the text: A cotransfection assay was established to identify serine proteases able to cleave and activate latent PDGF-CC. Expression plasmids encoding the relevant enzymes and full-length PDGF-C were cotransfected into COS-1 cells, and aliquots of the conditioned media from the transfectants were subjected to SDS-PAGE and immunoblotting using antibodies to the growth factor domain of PDGF-C. […] As a specificity control, the ability of tPA and NT to use full-length PDGF-DD as the substrate in the cotransfection assay was analysed. […] One difference in the latter results, as compared with the results from the cotransfection assay, was that purified tPA generated a second intermediate species of 32 kDa using latent PDGF-CC as the substrate. […]
To test the endogenous expression of PDGF-CC, subconfluent AG1523 cells and primary fibroblast cultures were cultured in serum-free DMEM overnight. […] In the case of the primary cultures, total protein concentration was measured and normalized (Bradford, 1976). […] PDGF-C and PDGF-D were detected by immunoblotting using affinity-purified polyclonal rabbit antibodies against PDGF-C (Li et al, 2000) and PDGF-D (Bergsten et al, 2001), respectively. The His6-tagged proteins were detected using an anti-His monoclonal antibody (C-terminal, Invitrogen). tPA was detected using sheep polyclonal antibodies against human tPA (ab9030, Abcam).

With “tPA: tissue plasminogen activator, secreted serine protease; expressed, purified from human melanoma cells or recombinant” as the substance, how does the “BrdU incorporation in tPA-deficient cells” value ([1]; serum-starved tPA-deficient fibroblasts) read?
The value was “strongly stimulated BrdU incorporation in the tPA-deficient cells”.

What about the “BrdU incorporation in wild-type cells” value ([1]; serum-starved wild-type fibroblasts) of the same substance?
The value was “had less effect on wild-type cells”.

What about the “cleavage and activation of latent PDGF-DD by the coexpressed protease” value (latent PDGF-DD) of the same substance?
The value was “neither of the two enzymes was able to cleave and activate latent PDGF-DD”.
